Assay results reported in paper PMC6372612, “Immunoglobulin G modulation of the melanocortin 4 receptor signaling in obesity and eating disorders” (Translational Psychiatry, 2019).
“Also recorded” adds a separate entry of the source.

Assays:
[1] = target: human melanocortin 4 receptor (human) (UniProt P32245)
[2] = target: human melanocortin 4 receptor (human) (UniProt P32245); test: SPR; BIAcore 1000; hMC4R-expressing HEK 293 cells coated on the biosensor surface; analyte α-MSH in immune complex with IgG from obese patients; Langmuir 1:1 fit after blank subtraction
human MC4R = test: cAMP production by MC4R-expressing HEK 293 cells; type: cell-based; details: AgRP 100 nM, 45 min preincubation or co-administered; n = 2/group
[3] = cited from earlier work
Excerpt: In fact, the role of both the N- and C-terminals of α-MSH in binding to different MCR subtypes has been shown, with the C-terminal being essential for MC4R recognition. Thus hiding of the C-terminal by IgG in OB patients appears as a negative modulator of α-MSH/IgG IC activation of MC4R. […] 12–13 of the α-MSH C-terminal have also been detected in narcolept ...

male Sprague-Dawley rats = test: Food intake in rats after intra-PVN injection of α-MSH or α-MSH/IgG IC; type: in vivo, rat; details: intra-PVN 2 µL α-MSH 2.5 mg/mL; 12-h fasted rats; vs aCSF
Experimental: Animal care and experimentation were in accordance with guidelines established by the National Institutes of Health, French and European Community regulations (Official Journal of the European Community L 358, 18/12/1986) and the study was approved by a Regional Ethical Committee (Rouen, France). Sample sizes were selected based on previous experiments. Non-randomized male Sprague-Dawley rats were anesthetized by ketamine (75 mg/kg, Virbac, Carros, France)/xylazine (5 mg/kg, Bayer, Leverkusen, France) solution (3:1 vol., 0.1 mL/100 g, intraperitoneal (IP)) and were stereotaxically implanted with a 9-mm guide cannula (PlasticsOne, Roanoke, VA, USA) into the paraventricular nucleus (PVN). Upon awakening, rats were individually maintained in metabolic cages (Techniplast, Louviers, France) for 5–6 days. […] Food intake was measured 30 min and 2 h after injection.
Animal care and experimentation were in accordance with guidelines established by the National Institutes of Health, French and European Community regulations (Official Journal of the European Community L 358, 18/12/1986). […] Food intake was measured 30 min and 2 h after injection. […]

wild-type C57Bl/6 mice = test: Food intake in wild-type mice after IP α-MSH; type: in vivo, mouse; details: α-MSH 100 µg/kg IP, beginning of dark phase; vs basal food intake; n = 6
Experimental: Rag^−/− mice (n = 6), bred in a specific-pathogen-free area, were generously provided by Professor Olivier Boyer and a person, Inserm 1234, Rouen. Rag^−/− and C57Bl/6 male mice were individually housed in BioDaq® cages (Research Diets Inc., New Brunswick, NJ, USA) for 7 days, and the basal food intake of each animal was measured during the first 4 h of the dark phase. At day 8, IP injections of α-MSH (100 µg/kg, Bachem) were performed at the beginning of the dark phase. Individual food intake after injection was compared to the basal food intake of the pretreatment period.
Upon arrival into the animal facility, male C57Bl/6 mice (7 weeks – n=6) purchased from Janvier Labs and Rag^-/- mice (generated by the Inserm UMR905 laboratory in a specific-pathogen-free area, n=6) were housed in standard cages (3 mice per cage) in environmental conditions (23 ± 1 °C, 12:12 h light-dark cycle) with standard pellet rodent chow and water available ad libitum. After 7 days of acclimatization, animals were individually housed in BioDaq® cages (Research Diets Inc., New Brunswick, NJ, USA) that provide automatic food intake measurements. During 7 days, the basal food intake of each animal was measured during the first 4 hours of the dark phase. At day 8, intraperitoneal injections of a-MSH (100 µg/kg, Bachem) were performed at the beginning of the dark phase. […]

[4] = test system: control HEK 293 cells lacking MC4R; test: cAMP production by control HEK 293 cells lacking MC4R; details: 15 min at 23 °C

Chain of human melanocortin 4 receptor (human) (P32245 whole entry): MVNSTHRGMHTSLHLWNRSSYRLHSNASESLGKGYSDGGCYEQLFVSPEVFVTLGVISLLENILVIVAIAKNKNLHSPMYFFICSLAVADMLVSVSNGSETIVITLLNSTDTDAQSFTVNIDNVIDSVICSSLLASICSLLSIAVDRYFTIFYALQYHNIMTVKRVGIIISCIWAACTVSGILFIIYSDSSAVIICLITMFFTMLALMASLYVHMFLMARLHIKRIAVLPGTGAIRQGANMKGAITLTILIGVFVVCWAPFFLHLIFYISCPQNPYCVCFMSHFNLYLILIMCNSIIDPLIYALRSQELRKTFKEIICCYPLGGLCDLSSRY

In the case of “α-melanocyte-stimulating hormone (peptide)”, the EC50 of cAMP release by hMC4R-expressing HEK 293 cells, IC formed by α-MSH and IgG from controls and ED patients, against free α-MSH [1] is reported as 50% and the fold lower affinity than in IC with IgG from controls [2] is reported as 10 fold.
For “agouti-related protein (SSRRCVRLHESCLGQQVPCCDPCATCYCRFFNAFCYCRKLGTAMNPCSRT; UniProt O00253 83-132, looked up) [AgRP]”, the “antagonism of α-MSH- and α-MSH/IgG IC-induced cAMP production” value (human MC4R) was “antagonized both α-MSH- and α-MSH/IgG IC-induced cAMP production”.
For adrenocorticotropic hormone [ACTH], the “functional activity when central part of ACTH is bound by IgG” value [3] is given as “preserved its functional activity to stimulate cortisol secretion”.
In the case of “α-melanocyte-stimulating hormone [α-MSH]”, the “anorexigenic effect, cumulative food intake at 30 min” value (male Sprague-Dawley rats) is reported as “significant anorexigenic effect”, the “anorexigenic effect, cumulative food intake at 120 min” value (male Sprague-Dawley rats) is reported as “significant anorexigenic effect” and the “4-h food intake in wild-type mice” value (wild-type C57Bl/6 mice) is reported as “significantly reduced food intake”. For the same substance, the “cAMP production by control HEK 293 cells lacking MC4R, in words” value [4] was “no significant α-MSH-induced cAMP production; also recorded: did not observe cAMP production”.
